The test has as its target T1, GIP receptor (Homo sapiens, UniProt P48546).
T1 construct: expressed in transfected cells; host or cells: CHO cell line
T1 sequence (P48546 22-466): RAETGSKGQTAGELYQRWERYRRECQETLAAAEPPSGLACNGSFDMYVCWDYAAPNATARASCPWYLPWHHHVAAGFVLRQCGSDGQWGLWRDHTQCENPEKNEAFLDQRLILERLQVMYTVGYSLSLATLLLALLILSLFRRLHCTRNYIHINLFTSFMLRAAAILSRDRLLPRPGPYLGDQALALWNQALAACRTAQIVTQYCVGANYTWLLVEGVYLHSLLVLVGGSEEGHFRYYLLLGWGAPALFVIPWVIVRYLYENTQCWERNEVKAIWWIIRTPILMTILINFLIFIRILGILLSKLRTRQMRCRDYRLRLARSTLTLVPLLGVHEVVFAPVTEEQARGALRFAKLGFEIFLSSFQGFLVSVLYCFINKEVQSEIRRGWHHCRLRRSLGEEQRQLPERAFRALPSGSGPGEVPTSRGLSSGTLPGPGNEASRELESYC
Put plainly: cAMP experiment, GIP receptor (CHO host cell line). Type of test: cell-based. As to conditions: CHO host cells.

The structures appear in SMILES notation.

By EC50 is commonly meant the midpoint of the concentration-response curve. Read a high EC50 as lower potency in that assay. The compound `CNC(CCCCNC(=O)COCCOCCOCCNC(=O)COCCOCCOCCNC(=O)CCC(NC(=O)CC(=O)O)C(=O)O)C(N)=O` (stereo not shown) [BG128] returned an EC50 of 0.279 nM. This lies in the sub-nanomolar range.
